Seven compounds from ChEMBL document CHEMBL5614404, “Optimization of potent, broad-spectrum, and specific anti-influenza compounds targeting RNA polymerase PA-PB1 heterodimerization” (Eur J Med Chem, 2024) can be followed below.

Values after ≈ are worked out from the molar mass of the structure shown. Active and inactive are the calls of the source. The calls are words filed in the database; no cut-off is given here.

Data set [1] is described as follows: Cytotoxicity against HEK293T cells incubated for 48 hrs by MTT assay. In kind it is toxicity, cell-based, HEK-293T. To be noted: human.
For data set [2], the system named is Influenza A virus. Nature of the data set: Antiviral activity against Influenza A virus PR/8/34 infected in MDCK cells incubated for 48 hrs by plaque reduction assay. The class given is functional, organism-based. To be noted: Influenza A virus, PR/8/34, MDCK, 48 h.
Data set [3] in a line: Selectivity index, ratio of CC50 for MDCK cells to EC50 for Influenza A virus PR/8/34 infected in MDCK cells. The class given is toxicity, cell-based. To be noted: dog, read-out: Ratio CC50/EC50.
The nature of data set [4]: Cytotoxicity against MDCK cells incubated for 48 hrs by MTT assay. The class given is toxicity, cell-based, Canis lupus familiaris. To be noted: dog.
Data set [5] can be described thus: Inhibition of 6His-tagged Influenza virus PA (239 to 716 residues) extracted from Escherichia coli BL21(DE3)pLysS/GST-tagged Influenza virus PB1 (1 to 25 residues) by ELISA. More on the design: species or system unidentified influenza virus.
The subject of data set [6] is HEK293T. Nature of the data set: Inhibition of heterodimerization of Influenza virus GFP-fused PA/PB1 transfected in HEK293T cells assessed as impaired nuclear import at 5 uM incubated for 14 hrs by CLSM analysis. To be noted: unidentified influenza virus. In kind it is cell-based.
The test system of data set [7] is unidentified influenza virus. Nature of the data set: Thermal stabilization of C-terminal 6His-tagged Influenza virus PA (239 to 716 residues) extracted from Escherichia coli BL21(DE3)pLysS/N-terminal Influenza virus PB1 (1 to 25 residues) assessed as shift in melting temperature by nano-DSF assay. In general terms: Differential scanning fluorimetry follows unfolding on heating by fluorescence.

In data set [8] the test system is Influenza A virus. Nature of the data set: Antiviral activity against Influenza A virus Puerto Rico/8/1934 (H1N1) infected in MDCK cells incubated for 48 hrs by plaque reduction assay. The class given is functional, organism-based.
Data set [9] in a line: Selectivity index, ratio of CC50 for MDCK cells to EC50 for Influenza A virus Puerto Rico/8/1934 (H1N1) infected in MDCK cells. In kind it is toxicity, cell-based. To be noted: dog, read-out: Ratio CC50/EC50.
Data set [10] in a line: Inhibition of heterodimerization of 6His-tagged Influenza virus PA (239 to 716 residues)/GST-tagged Influenza virus PB1 (1 to 25 residues) incubated overnight by ELISA. More on the design: species or system unidentified influenza virus.
The nature of data set [11]: Binding affinity to C-terminal His-tagged Influenza virus RdRp PA assessed as dissociation constant by ITC analysis. Details: species or system unidentified influenza virus. For orientation: Isothermal titration calorimetry measures the heat released or taken up as one component is titrated into another.
Data set [12] concerns Influenza A virus. Nature of the data set: Antiviral activity against Influenza A virus PR/8/34 (H1N1) infected in MDCK cells incubated for 48 hrs by plaque reduction assay. In kind it is functional, organism-based.
The nature of data set [13]: Thermodynamic solubility in aqueous media incubated for 24 hrs by shake flask method. The class given is physicochemical. To be noted: read-out: Therm_solubility.
Data set [14] deals with Dengue virus. The data set can be described thus: Antiviral activity against DENV infected in human Huh-7 cells assessed as inhibition of viral replication. The class given is functional, organism-based.
Data set [15] can be described thus: Metabolic stability in human liver microsomes assessed as unmetabolized compound at 50 uM incubated for 1 hr in presence of NADPH by UV/LC-MS analysis. To be noted: read-out: Stability. The class given is ADME, Microsome.
Data set [16] relates to A549. The data set can be described thus: Antiviral activity against HPIV infected in human A549 cells assessed as inhibition of viral replication. The class given is functional, cell-based.
In data set [17] the test system is West Nile virus. The data set can be described thus: Antiviral activity against WNV infected in human Huh-7 cells assessed as inhibition of viral replication. The class given is functional, organism-based.
Data set [18] in a line: Metabolic stability in rat plasma at 2 mM measured for 5 to 60 mins by UV/LC-MS analysis. The class given is ADME, cell-free. To be noted: time 5-60 min, read-out: Stability.
For data set [19], the system named is Influenza B virus. Nature of the data set: Antiviral activity against ancestral Influenza B virus Lee/40 infected in MDCK cells incubated for 48 hrs by plaque reduction assay. In kind it is functional, organism-based. To be noted: Lee/40, MDCK. (In general: Plaque reduction counts the foci of infection that form in a cell layer.)
For data set [20], the system named is HEK293T. The data set can be described thus: Inhibition of heterodimerization of Influenza virus GFP-fused PA/PB1 transfected in HEK293T cells assessed as impaired nuclear import at 0.5 uM incubated for 14 hrs by CLSM analysis. The class given is cell-based. To be noted: unidentified influenza virus.
For data set [21], the system named is Influenza A virus. Nature of the data set: Antiviral activity against Influenza A virus Wisconsin/67/05 (H3N2) infected in MDCK cells incubated for 48 hrs by plaque reduction assay. The class given is functional, organism-based.
The nature of data set [22]: Metabolic stability in rat plasma at 2 mM measured after 1440 mins by UV/LC-MS analysis. To be noted: read-out: Stability. The class given is ADME, cell-free.
For data set [23], the system named is Huh-7. The data set can be described thus: Cytotoxicity against human Huh-7 cells. The class given is toxicity, cell-based.
Data set [24] is described as follows: Binding affinity to RED-NT650-NHS-labeled C-terminal 6His-tagged recombinant Influenza virus PA (239 to 716 residues) extracted from Escherichia coli BL21(DE3)pLysS assessed as dissociation constant by MST assay. Details: species or system unidentified influenza virus.
Data set [25] can be described thus: Permeability of compound assessed as membrane retention incubated for 5 hrs by PAMPA. The class given is ADME.
Data set [26] deals with Influenza B virus. Nature of the data set: Antiviral activity against Influenza B virus Malaysia/2506/04 infected in MDCK cells incubated for 48 hrs by plaque reduction assay. To be noted: Malaysia/2506/04, MDCK. The class given is functional, organism-based.
Data set [27] deals with Caco-2. Nature of the data set: Cytotoxicity against human Caco-2 cells. The class given is toxicity, cell-based.
Data set [28] relates to SARS-CoV-2. The data set can be described thus: Antiviral activity against SARS CoV-2 infected in human Caco-2 cells assessed as inhibition of viral replication. To be noted: Severe acute respiratory syndrome coronavirus 2. The class given is functional, organism-based.
Data set [29] concerns A549. Nature of the data set: Cytotoxicity against human A549 cells. To be noted: a549. The class given is toxicity, cell-based.
The nature of data set [30]: Apparent permeability of compound incubated for 5 hrs by PAMPA. In kind it is ADME.

As a reminder, the CC50 is the concentration giving 50% cytotoxicity. The term EC50 denotes the concentration needed to bring the measured effect to its halfway point. Lower therefore signals an effect from little substance. Regarding `NC(=O)c1nc(F)cnc1O`, the figures for the CC50 at 48 h in data set [1] and in data set [4] were above 50 µM and above 250 µM, respectively. The compound further came in with an EC50 in data set [2] of 7.7 µM. Also, the selectivity ratio in data set [3] is above 32.
In general, IC50 refers to the concentration needed to halve the response being measured. Read a low IC50 as greater potency in that assay. Take `N#Cc1ccc(C(=O)Nc2sc3c(c2C(=O)Nc2ccc(C(F)(F)F)cc2)CCCCC3)cc1`: the CC50 at 48 h in [1] is above 50 µM; in [4], above 250 µM. Moreover, in data set [2], a half-maximal response (EC50) required 1.8 µM. The compound also gave a half-maximal inhibitory concentration (IC50) in [5] above 200 µM. The inhibition result in [6] was “inactive”. Also, in data set [3], the selectivity ratio is above 135. In addition, the outcome in data set [7] was inactive.
Regarding `O=C(Nc1sc2c(c1C(=O)Nc1nccs1)CCCCC2)c1ccccc1O`, the midpoint of the response in data set [8], the EC50, lay at 240 nM. The selectivity ratio in data set [9] is above 1040. This compound showed a CC50 at 48 h in data set [4] above 250 µM. In addition, it took 81 µM to reach half-maximal inhibition in data set [10] (IC50).
Usually Kd stands for the constant that tells how readily two partners part at equilibrium. For the compound `CCc1c(C)nc2nnc(-c3ccccc3Cl)n2c1O`, the Kd in data set [11] turned out to be 1320 nM.
Usually Papp stands for a coefficient for how fast a substance crosses the barrier. For `N#Cc1ccc(C(=O)Nc2sc3c(c2C(=O)Nc2ccccc2O)CCCCC3)cc1`, the EC50 is 380 nM in [12]; 0.38 µM in data set [2]; 300 nM in [19]; 220 nM in data set [21]; 350 nM in data set [26]. In addition, the solubility thermodynamic at 24 h in [13] was 17.6 µM (≈ 7.59 µg/mL). The CC50 at 48 h in [1] is above 50 µM; in data set [4], above 250 µM. Also, the outcome in data set [14], in [16], in data set [17] and in [28] was inactive. Further, in data set [15], the remaining at 1 h, 50 µM stood at 93.3%. Also, half-maximal inhibition in data set [5] (IC50) required 19.3 µM. The remaining at 2000 µM in data set [18] was found to be 95%. Also, the inhibition entry in data set [20] was “Active”. For the same compound, the remaining at 24 h, 2000 µM in [22] was 81%. The Activity entry in [23] is reported as “Non-Toxic”; in [25], 57%; in data set [27], “Non-Toxic”; in data set [29], “Non-Toxic”. Also, the Kd in data set [24] was 5.75 µM. For the same compound, the selectivity ratio in data set [3] was above 667. For the same compound, the outcome in data set [7] was Active. The Papp at 5 h in data set [30] is 3.48 ×10⁻⁶ cm/s.
With `O=C(Nc1sc2c(c1C(=O)Nc1ccc(F)cc1)CCCCC2)c1ccccc1O`, the midpoint of the response in data set [8], the EC50, lay at 880 nM. Also, the selectivity ratio in data set [9] is above 284. The compound also had a cytotoxic concentration (CC50) at 48 h in data set [4] above 250 µM. This compound returned a concentration for half-maximal inhibition (IC50) in [10] of 5.2 µM.
`O=C(Nc1sc2c(c1C(=O)Nc1ccc(F)cc1)CCCCC2)c1ccc([N+](=O)[O-])cc1` had an EC50 in data set [2] of 81 µM. For the same compound, the IC50 in [5] was above 200 µM. Also, the selectivity ratio in data set [3] is above 3. The same compound showed a CC50 at 48 h in data set [4] above 250 µM.
